The text below walks through data of the METLIN SMRT retention time set (Domingo-Almenara et al. 2019).

The series in a line: gradient 5% acetonitrile 3 min, to 50% in 2 min, to 85% in 15 min, held 3 min, 100 µL/min. The note with it: column: Zorbax Extend-C18 2.1 x 50 mm; eluents: water / acetonitrile, 0.1% formic acid. In a few lines: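 Pure standards were analyzed in mixtures of ~100 molecules using HPLC coupled to a quadrupole time-of-flight mass spectrometer, in both positive and negative ionization mode. Separation used a Zorbax Extend-C18 column (2.1 × 50 mm, 1.8 μm) at 100 μL/min, with water and acetonitrile each containing 0.1% formic acid. Dead and dwell volumes were 40 μL and 900 μL, and data were collected over 3 months. Retention time was read from computationally picked adduct peaks, each inspected manually.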
With `CCn1ncc(CN2CCCCC2CCn2cc(-c3ccccc3)nn2)c1C` (centres undefined), the RP-LC retention time was 530 s. The value for `CCOC(=O)Cc1ccc(NC(=O)N2CCCC2c2cc(C)on2)cc1` (centres undefined) was 807 s; that for `CCOC(=O)C1CCN(C(=O)c2ccc3c(c2)CCCN3S(=O)(=O)CC)CC1` was 798 s; that for `CCOc1ccc(NC(=O)N2CCc3cn(C)c4cccc(c34)C2)cc1` was 913 s. The value for `Cc1nnc2c(=O)n(CC(=O)NCc3ccccc3)c3cccnc3n12` was 654 s; that for `O=C(NCc1cccs1)NC1CC(=O)N(C2CC2)C1` (centres undefined) was 589 s.

`O=C(C1=C2CCCN2c2ccccc2S1(=O)=O)N1CCN(c2ccc(F)cc2)CC1` showed an RP-LC retention time of 796 s.

For the molecule `COc1ccc(N2CCN(C(=O)c3c(C)oc4nc(C)nc(N5CCCC5)c34)CC2)cc1`, the RP-LC retention time was determined as 694 s.

For the molecule `c1ccc(-c2nnc(Cc3nc(-c4ccc5c(c4)OCO5)no3)o2)cc1`, the RP-LC retention time was 957 s. The value for `CCN1C(=O)CCc2cc(NC(=O)c3cncc(Br)c3)ccc21` was 739 s; that for `O=C(Nc1ccc2c(c1)CCCN2C(=O)C1CC1)c1ccccc1[N+](=O)[O-]` was 716 s. The value for `O=c1n(Cc2ccccc2)nc2c(S(=O)(=O)N3CCOCC3)cccn12` was 721 s; that for `COc1ccc(OC)c(NC(=O)N2CCc3cn(CC(C)C)c4cccc(c34)C2)c1` was 1160 s. Molecule `CCOC(=O)C1CCN(C(=O)C2CCCN(c3nc4ccccc4[nH]3)C2)CC1` (centres undefined) returned an RP-LC retention time of 646 s. For the molecule `C=CCN1CCN(c2nc3cc(C(=O)OC)ccc3c(=O)n2-c2ccccc2)CC1`, the RP-LC retention time was 637 s. With `CCc1noc(NC(C)=O)c1-c1ccc(OC)c(S(=O)(=O)N(C)c2ccc(C)cc2)c1` the figure was 790 s; with `CC(C)CCC(=O)N1CCC(N2C[C@H](O)C[C@H]2C(N)=O)CC1`, 571 s; with `CCNC(=O)C1(C)CC(c2ccccc2)=NO1` (centres undefined), 732 s. With `O=C(N[C@@H](Cc1c[nH]c2ccccc12)C(=O)O)c1cc2ccccc2o1` the figure was 769 s; with `O=C(c1cc(S(=O)(=O)N2CCCC(C(=O)N3CCc4ccccc4C3)C2)c[nH]1)N1CCCC1` (centres undefined), 808 s. Consider `O=S(=O)(NCC(c1cccnc1)c1c[nH]c2ccccc12)c1ccc2c(c1)CCCC2` (centres undefined), for which the RP-LC retention time is 790 s. With `CC(C)(C)C(=O)Nc1cnc(N2CCNCC2)c(C(=O)N2CCCC2)c1` the figure was 588 s; with `CN(C)c1ccc(C(=O)N2CCN(C(=O)c3nnn4c3COC(c3ccc(Cl)cc3)C4)CC2)cc1` (centres undefined), 935 s.

As to `Cc1cccc(C)c1NC(=O)Cn1ncc2c(c1=O)N(CC1CC1)C(=O)CS2`, the RP-LC retention time amounted to 784 s. The value for `CCn1c(C(=O)NC(C)CCc2ccccc2)cc2sccc21` (centres undefined) was 1110 s; that for `CC(=O)N1CC[C@]2(CO)CN(C(=O)c3ccoc3C)C[C@@H]2C1` was 583 s; that for `CCCCC(=O)N1CCCN(C2=NS(=O)(=O)C(c3ccc(C)cc3)=C2C)CC1` was 855 s. With `CCCN1C(=O)c2c(C(=O)NCCc3ccccc3)ncn2CC1(C)C(=O)NC1CCCC1` (centres undefined) the figure was 860 s.

On to `CCOc1nc2ccccc2nc1N1CCCC(C(=O)N2CCN(c3ccc(F)cc3)CC2)C1` (centres undefined), for which the RP-LC retention time stood at 1300 s.

For `COc1cc2c(cc1OC)CN(C(=O)C1CCCN1S(=O)(=O)c1ccc(F)cc1)CC2` (centres undefined), the RP-LC retention time worked out at 775 s. The value for `NS(=O)(=O)c1ccc(CCNC(=O)c2nc(CCS(=O)(=O)c3ccccc3)no2)cc1` was 692 s. With `O=C(c1ccncn1)N1C[C@@H](COCC2CC2)[C@H](c2ccccn2)C1` the figure was 604 s; with `O=C(NCc1cccnc1)c1c2c(nc3ccccc13)C(=O)N(C1CCCCC1)C2`, 612 s; with `CC(C)c1ccc(NC(=O)C2CCN(C(=O)c3ncn4c3COC(c3ccccc3)C4)CC2)cc1` (centres undefined), 914 s. The value for `COc1cc(CC(=O)N2CCc3cc(-c4cc(C)no4)ccc32)cc(OC)c1` was 951 s; that for `CC(=O)N1CCc2cc(N3CC(C(=O)Nc4cc(Cl)ccc4F)CC3=O)ccc21` (centres undefined) was 768 s. Molecule `Fc1ccc(-c2nc(-c3cn(-c4cccc(F)c4)nn3)no2)cc1` came in with an RP-LC retention time of 1080 s. The value for `Cc1ccc(-c2noc(-c3ccccc3S(=O)(=O)Nc3ccc(S(N)(=O)=O)cc3)n2)cc1` was 933 s. Molecule `Cc1ccc(-c2nc(N3CC4(C)CC3CC(C)(C)C4)c3ccccc3n2)cc1` (centres undefined) registered an RP-LC retention time of 1060 s. With `OC1(Cc2ccccc2)CCNCC1` the figure was 612 s. With `COc1ccc(NC(=O)C2CCN(S(=O)(=O)c3cc(C(=O)N4CCCC4)cs3)CC2)cc1` the figure was 760 s; with `CCN(C(=O)C1CCCN1S(=O)(=O)c1cc2c(cc1C)NC(=O)CO2)c1cccc(C)c1` (centres undefined), 818 s.

On to `COc1ccc(Cl)cc1NC(=O)NCCn1c(-c2ccncc2)nc2cccnc21`, for which the RP-LC retention time was 659 s. With `COc1cccc(CNC(=O)CCc2nnc3c4cc(-c5ccccc5)nn4ccn23)c1` the figure was 752 s; with `Cc1ccc(N2C(=O)CN(S(C)(=O)=O)CC2(C)C(=O)NC2CCCCC2)cc1Cl` (centres undefined), 892 s. With `CCc1nc(OCC(=O)Nc2ccc(F)c(Cl)c2)c2ccccc2n1` the figure was 888 s; with `Cc1c(-c2ccnc(N3CCN(Cc4ccccc4)CC3)n2)cnc2nc(-c3ccccc3)nn12`, 713 s. The value for `CCCn1cc(S(=O)(=O)Nc2cc(F)cc(F)c2)c2cccnc21` was 890 s. Molecule `O=C(NC1CCN(Cc2ccccc2)CC1)C1CCCN(C(=O)N2CCOc3ccccc32)C1` (centres undefined) returned an RP-LC retention time of 641 s. With `O=C(Cn1ncccc1=O)N1CCN(c2ccc(-c3ccccn3)nn2)CC1` the figure was 537 s. With `O=C(Cn1nc2c3ccc(Cl)cc3ncn2c1=O)Nc1ccccc1` the figure was 727 s. The value for `CC(=O)c1ccc(NC(=O)CC2COc3ccccc3NC2=O)cc1` (centres undefined) was 677 s; that for `CCOC(=O)C1CCN(c2ncnc3c2cnn3-c2ccc(OC)cc2)CC1` was 952 s; that for `O=C(c1ccc(F)c(F)c1)N1CCN(c2cc(-c3ccc(Cl)cc3)[nH]n2)CC1` was 900 s.

As for `COc1ccc(C(=O)N2CCC3(CC2)NC(=O)c2cc(Cl)ccc2N3C)cc1OC`, the RP-LC retention time stood at 742 s. Consider `Cc1ccc(F)c(NC(=O)c2cnc(-c3ccc(F)cc3)nc2-c2ccncc2)c1`, for which the RP-LC retention time amounted to 954 s. The molecule `O=C(Nc1ccccc1)c1cn2c(n1)CCCC2` displayed an RP-LC retention time of 577 s.

Consider `CN(CCCNC(=O)C1CCCN(c2ncc(-c3cccc(F)c3)cn2)C1)c1ccccc1` (centres undefined), for which the RP-LC retention time turned out to be 838 s.

The molecule `CCc1ccc(C2=C(C)C(N3CCCN(C(=O)c4ccoc4)CC3)=NS2(=O)=O)cc1` returned an RP-LC retention time of 832 s. Molecule `CCCC(=O)Nc1ccc(CCc2nc3ccc(C(=O)NCCOC)cc3[nH]2)cc1` registered an RP-LC retention time of 599 s. With `COCc1nncn1C1CCN(S(=O)(=O)c2ccc(Cl)cc2C)CC1` the figure was 770 s. Take `Cc1ccc2[nH]c(=O)c(CCC(=O)NCCCN3CCCC(C)C3)cc2c1` (centres undefined): the RP-LC retention time is 594 s.

`O=C(NC1CCCCC1)c1cccc(Nc2c(-c3ccc(Cl)cc3)nc3cnccn23)c1` showed an RP-LC retention time of 935 s. The value for `CCCNC(=O)C(=O)NCC(c1ccc2c(c1)CCCN2C)N1CCCC1` (centres undefined) was 647 s. The value for `O=C(c1c(OCC2CC2)cc(=O)n2c1CCCCC2)N1CCOCC1` was 645 s; that for `O=C(Nc1cnc(N2CCCCCC2)nc1)c1cc(F)ccc1F` was 967 s; that for `O=C(c1cnccn1)N1CC(c2nc(CCOCC3CCCC3)no2)C1` was 601 s.

As to `COc1ccc(C(=O)N2CCn3c(C)nnc3C2)cc1F`, the RP-LC retention time was 593 s. As to `CCc1ccc(-n2c(CN3CCN(C(=O)NCCCOC)CC3)nc3cccnc32)cc1`, the RP-LC retention time is 634 s. With `COc1ccc(-c2ncc3c(n2)CCN(C(=O)Nc2ccccc2Cl)C3)cc1` the figure was 948 s. For the molecule `COc1ccc(-c2cc(=O)c3c(O)c(OC)c(OC)cc3o2)cc1O`, the RP-LC retention time was determined as 906 s. With `CC(C)Cn1cc(CCNC(=O)Nc2ccc(Br)cc2F)c2cccnc21` the figure was 975 s; with `Cc1cc(C)c(NC(=O)Cn2c(C)nc3onc(C)c3c2=O)c(C)c1`, 814 s; with `CCC(=O)N1CCc2c(C(=O)N3CCN(c4ccccn4)CC3)cccc21`, 589 s.

`Cc1ccc2cc(CCC(=O)NCCc3ccncc3)c(=O)[nH]c2c1` displayed an RP-LC retention time of 589 s. Molecule `CCN1C=C(C(=O)OCc2ccccc2Cl)C(C)=NS1(=O)=O` showed an RP-LC retention time of 1010 s. The value for `O=C(Nc1nnc(-c2ccco2)o1)c1c[nH]c2ccccc12` was 656 s; that for `CCn1cc(CCN2CCC(C(=O)Nc3ccc4c(c3)OCCO4)CC2)c2cccnc21` was 626 s. With `CCN(CC)C(=O)C1CCCN1S(=O)(=O)c1cc2c(cc1C)NC(=O)C(C)O2` (centres undefined) the figure was 714 s.
